Measurements published in ChEMBL document CHEMBL3792297, “Studies on phenothiazines: New microtubule-interacting compounds with phenothiazine A-ring as potent antineoplastic agents” (Bioorg Med Chem, 2016).

What was measured:
[1] = Growth inhibition of human HCC2998 cells at 10 uM after 48 hrs by SRB assay relative to control; type: functional; details: HCC 2998, 48 h, read-out: GI
[2] = test system: KM12; assay: Growth inhibition of human KM12 cells at 10 uM after 48 hrs by SRB assay relative to control; type: functional; details: KM12, 48 h, read-out: GI
[3] = test system: M14; assay: Growth inhibition of human M14 cells at 10 uM after 48 hrs by SRB assay relative to control; type: functional; details: M14, 48 h, read-out: GI
[4] = Growth inhibition of human UACC62 cells at 10 uM after 48 hrs by SRB assay relative to control; type: functional; details: UACC-62, 48 h, read-out: GI
[5] = Growth inhibition of human LOXIMVI cells at 10 uM after 48 hrs by SRB assay relative to control; type: functional; details: LOX IMVI, read-out: GI
[6] = test system: Malme-3M; assay: Growth inhibition of human MALME-3M cells at 10 uM after 48 hrs by SRB assay relative to control; type: functional; details: read-out: GI
[7] = Growth inhibition of human OVCAR3 cells at 10 uM after 48 hrs by SRB assay relative to control; type: functional; details: OVCAR-3, 48 h, read-out: GI
[8] = Growth inhibition of human OVCAR4 cells at 10 uM after 48 hrs by SRB assay relative to control; type: functional; details: OVCAR-4, 48 h, read-out: GI
[9] = Growth inhibition of human OVCAR5 cells at 10 uM after 48 hrs by SRB assay relative to control; type: functional; details: OVCAR-5, 48 h, read-out: GI
[10] = test system: A498; assay: Growth inhibition of human A498 cells at 10 uM after 48 hrs by SRB assay relative to control; type: functional; details: A498, 48 h, read-out: GI
[11] = Growth inhibition of human RXF393 cells at 10 uM after 48 hrs by SRB assay relative to control; type: functional; details: RXF 393, 48 h, read-out: GI
[12] = Growth inhibition of human UO31 cells at 10 uM after 48 hrs by SRB assay relative to control; type: functional; details: UO-31, 48 h, read-out: GI
[13] = test system: 786-0; assay: Growth inhibition of human 786-0 cells at 10 uM after 48 hrs by SRB assay relative to control; type: functional; details: 786-0, 48 h, read-out: GI
[14] = Growth inhibition of human TK10 cells at 10 uM after 48 hrs by SRB assay relative to control; type: functional; details: TK-10, 48 h, read-out: GI
[15] = Growth inhibition of human DU145 cells at 10 uM after 48 hrs by SRB assay relative to control; type: functional; details: DU-145, 48 h, read-out: GI
[16] = Growth inhibition of human PC3 cells at 10 uM after 48 hrs by SRB assay relative to control; type: functional; details: PC-3, 48 h, read-out: GI
[17] = Growth inhibition of human SF295 cells at 10 uM after 48 hrs by SRB assay relative to control; type: functional; details: SF-295, 48 h, read-out: GI
[18] = Growth inhibition of human SF539 cells at 10 uM after 48 hrs by SRB assay relative to control; type: functional; details: SF-539, 48 h, read-out: GI
[19] = Growth inhibition of human SNB75 cells at 10 uM after 48 hrs by SRB assay relative to control; type: functional; details: SNB-75, 48 h, read-out: GI
[20] = test system: U-251; assay: Growth inhibition of human U251 cells at 10 uM after 48 hrs by SRB assay relative to control; type: functional; details: U-251, 48 h, read-out: GI
[21] = test system: MCF7; assay: Growth inhibition of human MCF7 cells at 10 uM after 48 hrs by SRB assay relative to control; type: functional; details: MCF7, 48 h, read-out: GI
[22] = test system: MDA-MB-231; assay: Growth inhibition of human MDA-MB-231 cells at 10 uM after 48 hrs by SRB assay relative to control; type: functional; details: MDA-MB-231, 48 h, read-out: GI
[23] = Growth inhibition of human BT549 cells at 10 uM after 48 hrs by SRB assay relative to control; type: functional; details: BT-549, 48 h, read-out: GI
[24] = test system: T47D; assay: Growth inhibition of human T47D cells at 10 uM after 48 hrs by SRB assay relative to control; type: functional; details: read-out: GI
[25] = organism: Ovis aries; assay: Inhibition of sheep brain tubulin polymerization at 100 uM by DAPI staining-based fluorimetric method
[26] = test system: CCRF-CEM; assay: Growth inhibition of human CCRF-CEM cells at 10 uM after 48 hrs by SRB assay relative to control; type: functional; details: read-out: GI
[27] = test system: K562; assay: Growth inhibition of human K562 cells at 10 uM after 48 hrs by SRB assay relative to control; type: functional; details: K562, 48 h, read-out: GI
[28] = Growth inhibition of human MOLT4 cells at 10 uM after 48 hrs by SRB assay relative to control; type: functional; details: MOLT-4, 48 h, read-out: GI
[29] = Growth inhibition of human RPMI8226 cells at 10 uM after 48 hrs by SRB assay relative to control; type: functional; details: RPMI-8226, 48 h, read-out: GI
[30] = test system: SR; assay: Growth inhibition of human SR cells at 10 uM after 48 hrs by SRB assay relative to control; type: functional; details: read-out: GI
[31] = test system: A549; assay: Growth inhibition of human A549 cells at 10 uM after 48 hrs by SRB assay relative to control; type: functional; details: A549, 48 h, read-out: GI
[32] = test system: EKVX; assay: Growth inhibition of human EKVX cells at 10 uM after 48 hrs by SRB assay relative to control; type: functional; details: read-out: GI
[33] = Growth inhibition of human HOP62 cells at 10 uM after 48 hrs by SRB assay relative to control; type: functional; details: HOP-62, 48 h, read-out: GI
[34] = Growth inhibition of human HOP92 cells at 10 uM after 48 hrs by SRB assay relative to control; type: functional; details: HOP-92, 48 h, read-out: GI
[35] = test system: NCI-H226; assay: Growth inhibition of human NCI-H226 cells at 10 uM after 48 hrs by SRB assay relative to control; type: functional; details: NCI-H226, 48 h, read-out: GI
[36] = test system: NCI-H23; assay: Growth inhibition of human NCI-H23 cells at 10 uM after 48 hrs by SRB assay relative to control; type: functional; details: NCI-H23, 48 h, read-out: GI
[37] = test system: NCI-H322M; assay: Growth inhibition of human NCI-H322M cells at 10 uM after 48 hrs by SRB assay relative to control; type: functional; details: read-out: GI
[38] = test system: NCI-H460; assay: Growth inhibition of human NCI-H460 cells at 10 uM after 48 hrs by SRB assay relative to control; type: functional; details: NCI-H460, 48 h, read-out: GI
[39] = test system: NCI-H522; assay: Growth inhibition of human NCI-H522 cells at 10 uM after 48 hrs by SRB assay relative to control; type: functional; details: NCI-H522, 48 h, read-out: GI
[40] = Growth inhibition of human COLO205 cells at 10 uM after 48 hrs by SRB assay relative to control; type: functional; details: COLO 205, 48 h, read-out: GI

## O=C(c1ccc(Cl)cc1Cl)N1c2ccccc2Sc2ccccc21
[1]
  inhibition of growth at 10 µM: 35%
[2]
  inhibition of growth at 10 µM: 50%
[3]
  inhibition of growth at 10 µM: 40%
[4]
  inhibition of growth at 10 µM: 57%
[5]
  inhibition of growth at 10 µM: 76%
[6]
  inhibition of growth at 10 µM: 36%
[7]
  inhibition of growth at 10 µM: 41%
[8]
  inhibition of growth at 10 µM: 18%
[9]
  inhibition of growth at 10 µM: 29%
[10]
  inhibition of growth at 10 µM: 31%
[11]
  inhibition of growth at 10 µM: 30%
[12]
  inhibition of growth at 10 µM: 35%
[13]
  inhibition of growth at 10 µM: 33%
[14]
  inhibition of growth at 10 µM: 27%
[15]
  inhibition of growth at 10 µM: 35%
[16]
  inhibition of growth at 10 µM: 56%
[17]
  inhibition of growth at 10 µM: 47%
[18]
  inhibition of growth at 10 µM: 58%
[19]
  inhibition of growth at 10 µM: 40%
[20]
  inhibition of growth at 10 µM: 67%
[21]
  inhibition of growth at 10 µM: 48%
[22]
  inhibition of growth at 10 µM: 31%
[23]
  inhibition of growth at 10 µM: 45%
[24]
  inhibition of growth at 10 µM: 33%
[25]
  inhibition: 44%
[26]
  inhibition of growth at 10 µM: 43%
[27]
  inhibition of growth at 10 µM: 100%
[28]
  inhibition of growth at 10 µM: 74%
[29]
  inhibition of growth at 10 µM: 45%
[30]
  inhibition of growth at 10 µM: 68%
[31]
  inhibition of growth at 10 µM: 46%
[32]
  inhibition of growth at 10 µM: 24%
[33]
  inhibition of growth at 10 µM: 35%
[34]
  inhibition of growth at 10 µM: 28%
[35]
  inhibition of growth at 10 µM: 32%
[36]
  inhibition of growth at 10 µM: 26%
[37]
  inhibition of growth at 10 µM: 15%
[38]
  inhibition of growth at 10 µM: 82%
[39]
  inhibition of growth at 10 µM: 36%
[40]
  inhibition of growth at 10 µM: 55%
